The record followed here is patent US20250340529A1, “Heterocyclic Compounds as Immunomodulators of PD-L1 Interactions” (Ascletis BioScience Co., Ltd, priority 2021, published 2025).

Each structure is given as a SMILES string.

For test [1], the target named is PD-1/PD-L1 (Homo sapiens (Human), UniProt Q9NZQ7). As to the kind of experiment: PD-1/PD-L1 Homogeneous Time-Resolved Fluorescence (HTRF) binding assay. Conditions: 3 nM PD1, 10 nM PD-L1, 25° C., PBS pH 7.4. The procedure:
PD-1/PD-L1 Homogeneous Time-Resolved Fluorescence (HTRF) Binding Assay
The assays were conducted in a standard black 384-well polystyrene plate with a final volume of 20 μL. Inhibitors were first serially diluted in DMSO and then added to the plate wells before the addition of other reaction components. The final concentration of DMSO in the assay was 1%. The assays were carried out at 25° C. in the PBS buffer (pH 7.4) with 0.05% Tween-20 and 0.1% BSA. Recombinant human PD-L1 protein (19-238) with a Histag at the C-terminus was purchased from AcroBiosystems (PD1-H5229). Recombinant human PD-1 protein (25-167) with Fe tag at the C-terminus was also purchased from AcroBiosystems (PD1-H5257). PD-L1 and PD-1 proteins were diluted in the assay buffer and 10 μL was added to the plate well. Plates were centrifuged and proteins were preincubated with inhibitors for 40 minutes. The incubation was followed by the addition of 10 μL of HTRF detection buffer supplemented with Europium cryptate-labeled anti-human IgG (PerkinElmer-AD0212) specific for Fe and anti-His antibody conjugated to SureLight®-Allophycocyanin (APC, PerkinElmer-AD0059H). After centrifugation, the plate was incubated at 25° C. for 60 min. before reading on a PHERAstar FS plate reader (665 nm/620 nm ratio). Final concentrations in the assay were—3 nM PD1, 10 nM PD-L1, 1 nM europium anti-human IgG and 20 nM anti-His-Allophycocyanin. IC50 determination was performed by fitting the curve of percent control activity versus the log of the inhibitor concentration.

In test [2] the target is PD-L1/CHO-K1 cells (Homo sapiens (Human), UniProt Q9NZQ7). The test is described as follows: PD-L1 internalization (FACS, PD-L1/CHO-K1 cells). Format: cell-based. Particulars: % activation of PD-L1 internalization = 1 − PD-L1 signal; 17 hours incubation. How it is done:
Day 1. Seeding cells: Digest the PD-L1/CHO-K1 cells by trypsin in the flask, then counting the cell number and diluted to 1×10^5 cells/ml. Seeding cells to 6 well plate (Corning, #3516), 2 mL/well. The plates were incubated at 37° C., […] incubator for 24 hours.
Day 2. Preparing compounds and treated cells: Dilute GLC01-258 from 15 mM to 0.5 mM by using DMSO, and 15 mM compound were serial diluted from 15 mM˜15 nM by DMSO, Then 500 times dilute the compounds by using assay buffer. Prepare 0.2% DMSO in assay buffer used for Vehicle control and low control. Take out the plates, aspirated the medium and thrown away. Adding 2 mL of the diluted compounds, vehicle control and low control to corresponding wells. Then incubated the plates for 17 hours at 37° C., 5% CO2 incubator.
Day 3. Preparing samples for FACS: After 17 hours incubation, discarded medium and washed by the PBS. Cells in each well were Digested by trypsin. Centrifuge and discard the supernatant, then wash the cells by DPBS (Ca^2+, Mg^2+ free) for twice. 10 fold dilute the antibody (PE-conjugated mouse anti-human CD274) by DPBS, then adding the staining solution to compounds treated samples and vehicle control sample. The low control only add DPBS without antibody. Incubate the plates at room temperature for 20 minutes and protect from light. After 20 minutes, wash the samples by DPBS for twice. Then centrifuge and discard the supernatant. Resuspend cells by 300 uL DPBS and transfer the samples to 5 mL Polystryrene Round-Bottom Tube (Falcon, #352054), then tested by BD FACSCanto. […].
Set the PD-L1 signal of vehicle control as 100%, PD-L1 signal of Low control as 0%. Then calculate the compound treated samples' PD-L1 signal
0% PD-L1 signal: Low control which stained without anti-CD274
100% PD-L1 Signal: vehicle control which stained with anti-CD274
The % activation of PD-L1 Internalization=1−PD-L1 signal of compound.

PD-1/PD-L1, sequence (Q9NZQ7 19-238): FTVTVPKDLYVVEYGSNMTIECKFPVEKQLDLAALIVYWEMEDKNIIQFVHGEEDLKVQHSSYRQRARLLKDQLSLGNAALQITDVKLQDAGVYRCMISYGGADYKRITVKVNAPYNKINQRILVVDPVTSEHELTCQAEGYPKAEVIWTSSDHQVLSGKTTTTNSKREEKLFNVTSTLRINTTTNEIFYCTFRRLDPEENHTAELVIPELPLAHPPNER
PD-L1/CHO-K1 cells, sequence (Q9NZQ7 19-290): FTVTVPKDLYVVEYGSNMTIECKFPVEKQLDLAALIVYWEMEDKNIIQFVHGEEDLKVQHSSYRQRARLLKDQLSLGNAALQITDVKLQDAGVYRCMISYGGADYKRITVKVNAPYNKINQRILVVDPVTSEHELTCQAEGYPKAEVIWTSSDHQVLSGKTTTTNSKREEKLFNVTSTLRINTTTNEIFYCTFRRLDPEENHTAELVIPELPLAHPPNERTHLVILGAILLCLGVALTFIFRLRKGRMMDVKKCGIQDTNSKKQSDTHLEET

`O=C1COc2cc(-c3cccc(-c4cccc(-c5ccc6c(c5)OCC(=O)N6C[C@@H]5CC(F)(F)CN5)c4Cl)c3Cl)ccc2N1C[C@@H]1CC(F)(F)CN1` [Compound 530] gave a half-inhibitory concentration (IC50) in test [1] of 76.9 nM. In addition, the Internalization in test [2] came to 1.60%. On the same counts, the results for `CC(CO)(NCCN1C(=O)COc2cc(-c3cccc(-c4cccc(-c5ccc6c(c5)OCC(=O)N6CCNC(C)(CO)C(=O)O)c4Cl)c3Cl)ccc21)C(=O)O` (centres unmarked) [Compound 475] are 3.23 nM and 31.50%. The like results for `O=C1CC[C@@H](CN2C(=O)CNc3cc(-c4cccc(-c5cccc(-c6ccc7c(c6)NCC(=O)N7C[C@@H]6CCC(=O)N6)c5Cl)c4Cl)ccc32)N1` [Compound 363] were, in that order, 2.16 nM and 5.50%.

In turn, `O=C1CC(CN2C(=O)COc3cc(-c4cccc(-c5cccc(-c6ccc7c(c6)OCC(=O)N7CC6CNC(=O)C6)c5Cl)c4Cl)ccc32)CN1` (centres unmarked) [Compound 373] showed an IC50 in test [1] of 3.79 nM. In test [2], this compound had an Internalization of 3.20%. In the case of `O=C(O)[C@@H](O)CNCCN1C(=O)COc2cc(-c3cccc(-c4cccc(-c5ccc6c(c5)OCC(=O)N6CCNC[C@H](O)C(=O)O)c4Cl)c3Cl)ccc21` [Compound 553], the Internalization in test [2] was 9.40%. Take `O=C1CC[C@@H](CN2C(=O)COc3cc(-c4cccc(-c5cccc(-c6cc7c(cc6F)N(C[C@@H]6CCC(=O)N6)C(=O)CO7)c5Cl)c4Cl)c(F)cc32)N1` [Compound 388]: the IC50 in test [1] is 1.1 nM. Further, the Internalization in test [2] was found to be 6.10%.

On to `O=C(O)CC(O)CNCCN1C(=O)COc2cc(-c3cccc(-c4cccc(-c5ccc6c(c5)OCC(=O)N6CCNCC(O)CC(=O)O)c4Cl)c3Cl)ccc21` (centres unmarked) [Compound 470], for which the IC50 in test [1] is 2.28 nM. In test [2], this compound registered an Internalization of 20.90%. `O=C1CC[C@@H](CNCCN2C(=O)COc3cc(-c4cccc(-c5cccc(-c6ccc7c(c6)OCC(=O)N7CCNC[C@@H]6CCC(=O)N6)c5Cl)c4Cl)ccc32)N1` [Compound 449]: in test [1], the IC50 was determined as 3.89 nM. This compound also registered an Internalization in test [2] of 12.20%. On the same counts, the results for `O=C1COc2cc(-c3cccc(-c4cccc(-c5ccc6c(c5)OCC(=O)N6CCN[C@@H](CO)C(=O)O)c4Cl)c3Cl)ccc2N1` [Compound 542] are 5.24 nM and 3.30%. Turning to `O=C(O)[C@H](CO)NCCN1C(=O)COc2cc(-c3cccc(-c4cccc(-c5ccc6c(c5)OCC(=O)N6CCN[C@@H](CO)C(=O)O)c4F)c3F)ccc21` [Compound 613, (2S,2'S)-2,2′-((((2,2′-difluoro-[1,1′-biphenyl]-3,3′-diyl)bis(3-oxo-2,3-dihydro-4H-benzo[b][1,4]oxazine-7,4-diyl))bis(ethane-2,1-diyl))bis(azanediyl))bis(3-hydroxypropanoic acid)], the Internalization in test [2] worked out at 4.80%. As to `C[C@@H](O)[C@H](NCCN1C(=O)COc2cc(-c3cccc(-c4cccc(-c5ccc6c(c5)OCC(=O)N6CCN[C@H](C(=O)O)[C@@H](C)O)c4Cl)c3Cl)ccc21)C(=O)O` [Compound 545], the IC50 in test [1] was 4.81 nM. The compound further gave an Internalization in test [2] of 7.80%. On to `CC(=O)NCCNCCN1C(=O)COc2cc(-c3cccc(-c4cccc(-c5ccc6c(c5)OCC(=O)N6CCNCCNC(C)=O)c4Cl)c3Cl)ccc21` [Compound 461], for which, in test [1], the IC50 turned out to be 4.06 nM. This lies in the single-digit nanomolar range. The same measure, in the same setting: for `CC(C)[C@H](N)C(=O)N1CCC[C@H]1CN1C(=O)COc2cc(-c3cccc(-c4cccc(-c5ccc6c(c5)OCC(=O)N6C[C@@H]5CCCN5C(=O)[C@@H](N)C(C)C)c4Cl)c3Cl)ccc21` [Compound 459] the value was 436 nM; for `O=C(O)CNCCCN1C(=O)COc2cc(-c3cccc(-c4cccc(-c5ccc6c(c5)OCC(=O)N6CCCNCC(=O)O)c4Cl)c3Cl)ccc21` [Compound 479], 6.02 nM. The same measure, in the same setting: for `CC(=O)NCCNCCN1C(=O)COc2cc(-c3cccc(-c4cccc(-c5ccc6c(c5)OCC(=O)N6C[C@@H]5CCCN5)c4Cl)c3Cl)ccc21` [Compound 516] the value was 10.5 nM; for `O=C1CC(CN2C(=O)COc3cc(-c4cccc(-c5cccc(-c6ccc7c(c6)OCC(=O)N7C[C@@H]6CCC(=O)N6)c5Cl)c4Cl)ccc32)CN1` (some centres unmarked) [Compound 450], 6.47 nM; for `O=C1CC[C@@H](CN2C(=O)COc3cc(-c4cccc(-c5cccc(-c6ccc7c(c6)OCC(=O)N7CCN6CC[C@H](O)C6)c5Cl)c4Cl)ccc32)N1` [Compound 492], 3.15 nM. Same read-out and setting: the figure for `O=C1CC[C@@H](CN2C(=O)COc3cc(-c4cccc(-c5cccc(-c6cc(F)c7c(c6)OCC(=O)N7C[C@@H]6CCC(=O)N6)c5Cl)c4Cl)cc(F)c32)N1` [Compound 396] is 11.7 nM; for `O=C(O)C1CCN(CCN2C(=O)COc3cc(-c4cccc(-c5cccc(-c6ccc7c(c6)OCC(=O)N7CCNCCO)c5Cl)c4Cl)ccc32)C1` (centres unmarked) [Compound 493] it is 5.59 nM. `O=C1CC[C@@H](CN2C(=O)COc3nc(-c4cccc(-c5cccc(-c6ccc7c(n6)OCC(=O)N7C[C@@H]6CCC(=O)N6)c5Cl)c4Cl)ccc32)N1` [Compound 457] registered an IC50 in test [1] of 8.78 nM.

With `O=C1COc2cc(-c3cccc(-c4cccc(-c5ccc6c(c5)OCC(=O)N6C[C@@H]5CCCCN5)c4Cl)c3Cl)ccc2N1C[C@@H]1CCCCN1` [Compound 558], in test [1], the IC50 worked out at 10.6 nM. The IC50 values of the last two compounds are within 1.5-fold of each other.

Compound `O=C1CC[C@@H](Cn2c(=O)cnc3cc(-c4cccc(-c5cccc(-c6ccc7c(c6)ncc(=O)n7C[C@@H]6CCC(=O)N6)c5Cl)c4Cl)ccc32)N1` [Compound 361] returned an IC50 in test [1] of 1.75 nM. Compared with the last compound, the IC50 is about 6.1-fold lower. On the same count and under the same terms, the figure for `O=C1CCCN1CCN1C(=O)COc2cc(-c3cccc(-c4cccc(-c5ccc6c(c5)OCC(=O)N6CCN5CCCC5=O)c4Cl)c3Cl)ccc21` [Compound 394] is 471 nM; for `O=C1CC[C@@H](CN2C(=O)COc3cc(-c4cccc(-c5cccc(-c6cnc7c(c6)OCC(=O)N7C[C@@H]6CCC(=O)N6)c5Cl)c4Cl)cnc32)N1` [Compound 401] it is 9.78 nM; for `O=C(O)CCNCCN1C(=O)COc2cc(-c3cccc(-c4cccc(-c5ccc6c(c5)OCC(=O)N6CCN5CC[C@H](O)C5)c4Cl)c3Cl)ccc21` [Compound 491] it is 5.22 nM. On the same count and under the same terms, the figure for `O=C(O)[C@H]1C[C@@H](O)CN1CCN1C(=O)COc2cc(-c3cccc(-c4cccc(-c5ccc6c(c5)OCC(=O)N6CCN5C[C@H](O)C[C@@H]5C(=O)O)c4Cl)c3Cl)ccc21` [Compound 484] is 6.53 nM. Same read-out and setting: the figure for `NC(=O)C[C@H](NCCN1C(=O)COc2cc(-c3cccc(-c4cccc(-c5ccc6c(c5)OCC(=O)N6CCN[C@@H](CC(N)=O)C(=O)O)c4Cl)c3Cl)ccc21)C(=O)O` [Compound 570] is 10.9 nM; for `CC(=O)NCCNCCN1C(=O)COc2cc(-c3cccc(-c4cccc(-c5ccc6c(c5)OCC(=O)N6C[C@@H]5CCC(=O)N5)c4Cl)c3Cl)ccc21` [Compound 489] it is 6.31 nM. `O=C(O)[C@@H]1C[C@@H](O)CN1CCN1C(=O)COc2cc(-c3cccc(-c4cccc(-c5ccc6c(c5)OCC(=O)N6CCN5C[C@@H](O)C[C@H]5C(=O)O)c4Cl)c3Cl)ccc21` [Compound 482] showed an IC50 in test [1] of 6.72 nM. Same read-out and setting: for `O=C1COc2cc(-c3cccc(-c4cccc(-c5ccc6c(c5)OCC(=O)N6CCO)c4Cl)c3Cl)ccc2N1CCO` [Compound 378] the value was 69.7 nM. Consider `O=C1N[C@@H](CN2C(=O)COc3cc(-c4cccc(-c5cccc(-c6ccc7c(c6)OCC(=O)N7C[C@H]6COC(=O)N6)c5Cl)c4Cl)ccc32)CO1` [Compound 413], for which the IC50 in test [1] was determined as 7.05 nM. On the same count and under the same terms, for `N#Cc1cncc(CN2C(=O)COc3cc(-c4cccc(-c5cccc(-c6ccc7c(c6)OCC(=O)N7Cc6cncc(C#N)c6)c5Cl)c4Cl)ccc32)c1` [Compound 430] the value was not below 3000 nM.

Broadly, the IC50 is the concentration that gives 50% inhibition.
